Results on two compounds are retold here after US20080312317A1 (Eisai R&D Management Co., Ltd., priority 2007, published 2008).

Common to all, as to assay type: cell-based
For experiment [1], the system named is U937 human leukemia cell. Put plainly: Proliferation inhibitory effect, Cell Titer-Glo viability assay, U937. As to conditions: U-937, 72 h, 3 days culture with compound, luciferase viability readout, read-out: IC50, concentration for 50% inhibition of cell growth. The method, then: (§1) WiDr human colon cancer cells cultured in RPMI1640 medium containing 10% fetal bovine serum, penicillin (100 unit/ml) and streptomycin (100 μg/ml) (SIGMA product) were seeded into a 96-well plate by 2×10^3 cells/90 μl/well. After culturing the cells overnight in a CO2 incubator, 10 μl of the compound (P15) which is diluted in series in 3-folds was added in each well above, and cultured for another 3 days. Then, 50 μl of Cell Titer-Glo Luminescent Cell Viability Assay (Promega product) was added thereto, cells were shaken for 2 minutes and allowed to stand for 15 minutes to allow reaction. After completing the reaction, luciferase activity was measured using the luminometer. The thus obtained measurement value was given as an index for the number of living cells in each well.
(§2) The same experiment as above was carried out, except that WiDr human colon cancer cell was changed to U937 human leukemia cell, KP4 human pancreatic cancer cell, MIApaca2 human pancreatic cancer cell, MDA-MB231 human breast cancer cell, MDA-MB435 human breast cancer cell, DU145 human prostate cancer cell, PC9 human lung cancer cell and OVCAR3 human ovarian cancer, respectively. The concentration (IC50 values) of the compound (P15) required for 50% inhibition of each cancer cell was determined. […]

Experiment [2] relates to OVCAR3 human ovarian cancer. Put plainly: Proliferation inhibitory effect, Cell Titer-Glo viability assay, OVCAR3. As to conditions: OVCAR-3, 72 h, 3 days culture with compound, luciferase viability readout, read-out: IC50, concentration for 50% inhibition of cell growth. The method, then:
as §1, §2

For experiment [3], the system named is WiDr human colon cancer cell. Put plainly: Proliferation inhibitory effect, Cell Titer-Glo viability assay, WiDr. The conditions noted are these: 72 h, 3 days culture with compound, luciferase viability readout, read-out: IC50, concentration for 50% inhibition of cell growth. The method, then: as §1
The same experiment as in Test Example 1 was carried out, except that the compound (P15) was changed to the compound (P16). The concentration (IC50 value) of the compound (P16) required for 50% inhibition of WiDr human colon cancer cell growth was determined.

Experiment [4] relates to MDA-MB231 human breast cancer cell. Put plainly: Proliferation inhibitory effect, Cell Titer-Glo viability assay, MDA-MB231. The conditions noted are these: MDA-MB-231, 72 h, 3 days culture with compound, luciferase viability readout, read-out: IC50, concentration for 50% inhibition of cell growth. The method, then: as §1, §2
The subject of experiment [5] is DU145 human prostate cancer cell. Put plainly: Proliferation inhibitory effect, Cell Titer-Glo viability assay, DU145. As to conditions: DU-145, 72 h, 3 days culture with compound, luciferase viability readout, read-out: IC50, concentration for 50% inhibition of cell growth. The method, then:
as §1, §2

The subject of experiment [6] is MDA-MB435 human breast cancer cell. Nature of the experiment: Proliferation inhibitory effect, Cell Titer-Glo viability assay, MDA-MB435. The conditions noted are these: MDA-MB-435, 72 h, 3 days culture with compound, luciferase viability readout, read-out: IC50, concentration for 50% inhibition of cell growth. The procedure: as §1, §2
The subject of experiment [7] is MIApaca2 human pancreatic cancer cell. Put plainly: Proliferation inhibitory effect, Cell Titer-Glo viability assay, MIApaca2. As to conditions: MIA PaCa-2, 72 h, 3 days culture with compound, luciferase viability readout, read-out: IC50, concentration for 50% inhibition of cell growth. The method, then:
as §1, §2

Experiment [8] has as its system KP4 human pancreatic cancer cell. Nature of the experiment: Proliferation inhibitory effect, Cell Titer-Glo viability assay, KP4. As to conditions: 72 h, 3 days culture with compound, luciferase viability readout, read-out: IC50, concentration for 50% inhibition of cell growth. The procedure: as §1, §2
Experiment [9] relates to PC9 human lung cancer cell. Put plainly: Proliferation inhibitory effect, Cell Titer-Glo viability assay, PC9. As to conditions: 72 h, 3 days culture with compound, luciferase viability readout, read-out: IC50, concentration for 50% inhibition of cell growth. The method, then:
as §1, §2

As to `CC[C@H](O)[C@@H](C)[C@H]1O[C@@H]1C[C@@](C)(O)/C=C/C=C(\C)[C@H]1NC(=O)CCCCCC(OC(C)=O)/C=C/[C@@H]1C` (stereo partly drawn) [Compound P15, (2S,3S,4E)-2-((1E,3E,5R)-5-hydroxy-6-{(2R,3R)-3-[(1R,2S)-2-hydroxy-1-methylbutyl]oxiran-2-yl}-1,5-dimethylhexa-1,3-dien-1-yl)-3-methyl-12-oxoazacyclododec-4-en-6-yl acetate], the IC50 is 0.55 µM in experiment [1]; 0.43 µM in [2]; 0.57 µM in experiment [3]; 0.47 µM in experiment [4]; 2.3 µM in [5]; 1.7 µM in [6]. The IC50 is 0.5 µM in experiment [7], 1.3 µM in [8] and 1.4 µM in [9].
`CC[C@H](O)[C@@H](C)[C@H]1O[C@@H]1C[C@H](C)/C=C/C=C(\C)[C@H]1NC(=O)CCCCCC(OC(C)=O)/C=C/[C@@H]1C` (stereo partly drawn) [Compound P16]: the IC50 came out at 0.14 µM in experiment [1]; 0.097 µM in [2]; 0.29 µM in experiment [3]; 0.13 µM in experiment [4]; 0.51 µM in [5]; 0.38 µM in [6]. Further, the IC50 was found to be 0.14 µM in [7], 0.3 µM in experiment [8] and 0.24 µM in experiment [9].
